Source: patent publication US9504251B2, “Pesticidal compositions and related methods” (Dow AgroSciences LLC, priority 2014, dated 2016)

Tests used:
[1] = test system: Green Peach Aphid (Myzus persicae) (GPA) (MYZUPE); test: Green peach aphid (GPA) foliar spray bioassay on cabbage seedlings; assay type: in vivo; conditions: 72 h, 200 ppm foliar spray on cabbage seedlings, graded after three days, Abbott-corrected % control, disclosed compounds (TABLE 2), read-out: GPA % Control (or Mortality) rating
Protocol: Bioassay for GPA was prepared as follows: Cabbage seedlings grown in 3-inch pots, with 2-3 small (3-5 cm) true leaves, were used as test substrate. The seedlings were infested with 20-50 GPA (adult and nymph stages) one day prior to chemical application. Four pots with individual seedlings were used for each treatment. The tested compounds (2 mg) were dissolved in 2 mL of acetone/methanol (1:1) solvent to form stock solutions of 1000 ppm tested compound. The stock solutions were diluted five times with an aqueous solution containing 0.025% TWEEN® 20 surfactant, which is polyoxyethylene (20) sorbitan monolaurate, to obtain the solution at 200 ppm tested compound. A hand-held aspirator-type sprayer was used for spraying the solution to both sides of cabbage leaves until runoff. The control plants (solvent check) were sprayed with the diluent only containing 20% by volume of acetone/methanol (1:1) solvent. Treated plants were held in a holding room for three days at approximately 25° C. and ambient relative humidity (RH) prior to grading. Evaluation was conducted by counting the number of live aphids per plant under a microscope. Percent control was measured by using Abbott's correction formula (W. S. Abbott, “A Method of Computing the Effectiveness of an Insecticide,” J. Econ. Entomol. 18 (1925), pp. 265-267) as follows. Corrected % Control=100*(X−Y)/X
X=No. of live aphids on solvent check plants and
Y=No. of live aphids on treated plants
(§1) The comparative compounds were tested for insecticidal activities against GPA and WF pests using the same test protocols described above for the disclosed compounds.

[2] = test system: Sweetpotato Whitefly-crawler (Bemisia tabaci) (WF) (BEMITA); test: Sweetpotato whitefly-crawler (WF) foliar spray assay on cotton plants; assay type: in vivo; conditions: 216 h, 200 ppm foliar spray on cotton plants, graded after 9 days, Abbott-corrected % control, disclosed compounds (TABLE 2), read-out: WF % Control (or Mortality) rating
Protocol: Foliar spray assay for WF was prepared as follows: Cotton plants (Gossypium hirsutum) grown in 3-inch pots, with 1 small (4-5 cm) true leaf, were used as test substrate. The plants were infested with 200-400 whitefly eggs 4-5 days prior to chemical application. Four pots with individual plants were used for each treatment. Tested compounds (2 mg) were dissolved in 1 mL of acetone solvent, forming stock solutions of 2000 ppm tested compound.
The stock solutions were diluted ten times with 0.025% TWEEN® 20 surfactant in H2O (diluents) to obtain the solution at 200 ppm tested compound. A hand-held aspirator-type sprayer was used for spraying the solution to both sides of cotton leaves until runoff. The control plants (solvent check) were sprayed with the diluent only containing 10% by volume of acetone solvent. Treated plants were held in a holding room for 9 days at approximately 25° C. and ambient relative humidity (RH) prior to grading. Evaluation was conducted by counting the number of live 3-4 nymph stage per plant under a microscope. Percent control was measured by using Abbott's correction formula (W. S. Abbott, “A Method of Computing the Effectiveness of an Insecticide,” J. Econ. Entomol. 18 (1925), pp. 265-267) as follows. Corrected % Control=100*(X−Y)/X
X=No. of live nymphs on solvent check plants and
Y=No. of live nymphs on treated plants.
as §1

O=C1c2cn(-c3cccnc3)nc2CCN1c1cccc(C(F)(F)F)n1 [Compound F46, 2-(3-Pyridyl)-5-[6-(trifluoromethyl)-2-pyridyl]-6,7-dihydropyrazolo[4,3-c]pyridin-4-one]
mortality at 200 ppm [1]: 80 to 100% | mortality at 200 ppm [2]: 0 to 80%

O=C1c2cn(-c3cccnc3)nc2CCN1c1cc(C(F)(F)F)ncn1 [Compound F48, 2-(3-Pyridyl)-5-[6-(trifluoromethyl)pyrimidin-4-yl]-6,7-dihydropyrazolo[4,3-c]pyridin-4-one]
mortality at 200 ppm [1]: 80 to 100% | mortality at 200 ppm [2]: 0 to 80%

O=C1c2cn(-c3cccnc3)nc2CCN1c1ccc(F)cn1 [Compound F49, 5-(5-Fluoro-2-pyridyl)-2-(3-pyridyl)-6,7-dihydropyrazolo[4,3-c]pyridin-4-one]
mortality at 200 ppm [1]: 80 to 100% | mortality at 200 ppm [2]: 0 to 80%

O=C1c2cn(-c3cccnc3)nc2CCN1Cc1ccc(C(F)(F)F)cc1 [Compound F50, 2-(3-Pyridyl)-5-[[4-(trifluoromethyl)phenyl]methyl]-6,7-dihydropyrazolo[4,3-c]pyridine-4-one]
mortality at 200 ppm [1]: 80 to 100% | mortality at 200 ppm [2]: 0 to 80%

CS(=O)(=O)CN1CCc2nn(-c3cccnc3)cc2C1=O [Compound F51, 5-((methylsulfonyl)methyl)-2-(pyridin-3-yl)-6,7-dihydro-2H-pyrazolo[4,3-c]pyridin-4(5H)-one]
mortality at 200 ppm [1]: 80 to 100% | mortality at 200 ppm [2]: 80 to 100%

O=C(CN1CCc2nn(-c3cccnc3)cc2C1=O)c1ccccc1 [Compound P18, 5-(2-oxo-2-phenylethyl)-2-(pyridin-3-yl)-2,5,6,7-tetrahydro-4H-pyrazolo[4,3-c]pyridin-4-one]
mortality at 200 ppm [1]: 80 to 100% | mortality at 200 ppm [2]: 80 to 100%
